Laboratory results as given in paper PMC4979471 (Cell Death Discovery, 2015).
Read-outs that look alike come from different tables or passages of the source.

Key:
Assay in all cases: Kinase selectivity, P33-radiolabeled assay
Assay type in all cases: biochemical
Settings in all cases: 10 μM ATP
HGK/MAP4K4 = biological target: T1, HGK/MAP4K4 (Homo sapiens, UniProt O95819)
T1 construct: purchased Reaction Biology Corp
Procedure, shortened: (§1)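 Duplicate single-concentration testing used 10 μM compound. The ATP concentration was also 10 μM.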

RSK4 = biological target: T2, RSK4 (Homo sapiens, UniProt Q9UK32)
T2 construct: purchased Reaction Biology Corp
Procedure, shortened: as §1

LCK = biological target: T3, LCK (Homo sapiens, UniProt P06239)
T3 construct: purchased Reaction Biology Corp
T3 sequence (P06239 whole entry): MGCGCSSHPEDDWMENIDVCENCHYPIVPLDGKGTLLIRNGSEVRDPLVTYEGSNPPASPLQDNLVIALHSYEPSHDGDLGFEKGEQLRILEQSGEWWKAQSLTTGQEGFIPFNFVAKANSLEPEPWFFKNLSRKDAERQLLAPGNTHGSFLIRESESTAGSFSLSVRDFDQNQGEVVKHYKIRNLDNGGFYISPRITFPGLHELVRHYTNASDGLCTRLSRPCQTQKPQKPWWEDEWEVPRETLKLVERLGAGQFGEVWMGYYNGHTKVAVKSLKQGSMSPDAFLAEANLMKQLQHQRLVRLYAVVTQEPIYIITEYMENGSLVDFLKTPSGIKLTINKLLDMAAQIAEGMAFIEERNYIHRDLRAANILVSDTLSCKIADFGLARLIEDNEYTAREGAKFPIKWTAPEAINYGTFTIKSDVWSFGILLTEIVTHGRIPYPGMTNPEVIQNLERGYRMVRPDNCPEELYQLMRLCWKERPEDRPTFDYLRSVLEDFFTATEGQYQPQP
Procedure, shortened: as §1

MINK/MINK1 = biological target: T4, MINK/MINK1 (Homo sapiens, UniProt Q8N4C8)
T4 construct: purchased Reaction Biology Corp
T4 sequence (Q8N4C8 whole entry): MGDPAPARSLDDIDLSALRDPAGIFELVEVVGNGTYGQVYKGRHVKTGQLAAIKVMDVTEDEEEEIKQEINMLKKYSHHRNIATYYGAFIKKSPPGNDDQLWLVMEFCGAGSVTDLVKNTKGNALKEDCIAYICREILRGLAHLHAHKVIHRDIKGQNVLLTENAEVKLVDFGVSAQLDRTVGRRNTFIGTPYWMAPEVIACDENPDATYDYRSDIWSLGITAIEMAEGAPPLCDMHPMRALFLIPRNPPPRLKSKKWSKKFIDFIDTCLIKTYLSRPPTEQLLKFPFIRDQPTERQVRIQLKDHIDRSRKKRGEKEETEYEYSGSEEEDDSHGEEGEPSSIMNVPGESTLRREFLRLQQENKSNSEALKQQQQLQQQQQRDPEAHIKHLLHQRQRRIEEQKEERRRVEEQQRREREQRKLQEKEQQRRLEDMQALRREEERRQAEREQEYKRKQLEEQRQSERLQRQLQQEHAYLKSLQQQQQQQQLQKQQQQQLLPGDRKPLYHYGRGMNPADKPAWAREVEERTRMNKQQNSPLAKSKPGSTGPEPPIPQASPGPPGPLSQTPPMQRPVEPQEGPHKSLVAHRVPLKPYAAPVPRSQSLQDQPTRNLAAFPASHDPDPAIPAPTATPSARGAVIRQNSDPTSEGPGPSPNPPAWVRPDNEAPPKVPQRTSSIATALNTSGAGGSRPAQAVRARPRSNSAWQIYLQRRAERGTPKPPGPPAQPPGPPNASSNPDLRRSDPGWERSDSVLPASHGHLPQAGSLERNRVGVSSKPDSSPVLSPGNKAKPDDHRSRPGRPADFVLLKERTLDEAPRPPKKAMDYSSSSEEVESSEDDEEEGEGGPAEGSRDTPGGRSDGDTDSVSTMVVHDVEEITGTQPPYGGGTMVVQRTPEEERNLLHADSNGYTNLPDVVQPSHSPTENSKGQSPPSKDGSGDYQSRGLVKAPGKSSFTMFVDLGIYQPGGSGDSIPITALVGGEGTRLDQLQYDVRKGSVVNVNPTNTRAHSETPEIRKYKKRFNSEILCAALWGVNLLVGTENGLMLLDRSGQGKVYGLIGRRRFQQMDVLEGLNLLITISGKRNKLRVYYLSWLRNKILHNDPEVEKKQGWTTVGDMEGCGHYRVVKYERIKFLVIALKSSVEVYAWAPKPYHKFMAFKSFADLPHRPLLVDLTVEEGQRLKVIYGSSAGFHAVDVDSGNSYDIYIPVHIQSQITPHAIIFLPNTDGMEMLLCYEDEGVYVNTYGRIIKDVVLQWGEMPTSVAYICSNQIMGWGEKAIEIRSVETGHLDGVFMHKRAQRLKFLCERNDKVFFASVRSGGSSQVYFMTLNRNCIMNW
Procedure, shortened: as §1

TRKB = biological target: T5, TRKB (Homo sapiens, UniProt Q16620)
T5 construct: purchased Reaction Biology Corp
T5 sequence (Q16620 32-822): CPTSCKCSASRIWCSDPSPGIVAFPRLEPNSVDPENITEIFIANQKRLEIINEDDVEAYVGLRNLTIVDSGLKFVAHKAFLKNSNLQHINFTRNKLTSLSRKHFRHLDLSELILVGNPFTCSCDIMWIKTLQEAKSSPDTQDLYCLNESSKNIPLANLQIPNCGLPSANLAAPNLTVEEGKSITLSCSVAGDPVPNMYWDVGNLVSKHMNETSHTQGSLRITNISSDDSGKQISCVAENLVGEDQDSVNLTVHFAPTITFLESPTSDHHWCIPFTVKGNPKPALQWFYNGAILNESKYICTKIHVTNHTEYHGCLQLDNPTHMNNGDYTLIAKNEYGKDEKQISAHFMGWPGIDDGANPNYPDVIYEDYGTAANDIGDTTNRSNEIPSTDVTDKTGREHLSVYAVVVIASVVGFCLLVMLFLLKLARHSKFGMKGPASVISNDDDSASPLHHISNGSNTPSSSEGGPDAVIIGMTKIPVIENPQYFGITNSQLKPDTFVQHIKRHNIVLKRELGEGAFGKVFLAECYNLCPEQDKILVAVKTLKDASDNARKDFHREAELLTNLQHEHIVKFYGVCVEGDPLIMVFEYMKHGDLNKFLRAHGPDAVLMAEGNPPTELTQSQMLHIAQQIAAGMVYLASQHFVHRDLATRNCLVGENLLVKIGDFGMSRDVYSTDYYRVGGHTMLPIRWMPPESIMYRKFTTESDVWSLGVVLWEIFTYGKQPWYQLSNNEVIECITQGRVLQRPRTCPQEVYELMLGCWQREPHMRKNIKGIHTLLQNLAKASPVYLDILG
Procedure, shortened: as §1

IRAK4 = biological target: T6, IRAK4 (Homo sapiens, UniProt Q9NWZ3)
T6 construct: purchased Reaction Biology Corp
T6 sequence (Q9NWZ3 1-460): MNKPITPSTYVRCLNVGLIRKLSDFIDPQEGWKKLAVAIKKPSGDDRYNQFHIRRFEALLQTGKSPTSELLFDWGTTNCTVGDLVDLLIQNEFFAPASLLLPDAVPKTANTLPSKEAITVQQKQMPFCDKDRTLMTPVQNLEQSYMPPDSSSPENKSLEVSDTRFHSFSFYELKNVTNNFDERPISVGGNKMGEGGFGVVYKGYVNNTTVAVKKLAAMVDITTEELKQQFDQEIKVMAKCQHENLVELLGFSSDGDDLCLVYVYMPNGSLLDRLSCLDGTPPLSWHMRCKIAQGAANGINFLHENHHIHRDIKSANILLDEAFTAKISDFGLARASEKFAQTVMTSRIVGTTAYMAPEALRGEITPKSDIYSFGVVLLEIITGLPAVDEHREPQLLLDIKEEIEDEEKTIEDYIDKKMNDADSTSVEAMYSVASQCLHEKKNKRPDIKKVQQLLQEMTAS
Procedure, shortened: as §1

TSSK2 = biological target: T7, TSSK2 (Homo sapiens, UniProt Q96PF2)
T7 construct: purchased Reaction Biology Corp
T7 sequence (Q96PF2 1-358): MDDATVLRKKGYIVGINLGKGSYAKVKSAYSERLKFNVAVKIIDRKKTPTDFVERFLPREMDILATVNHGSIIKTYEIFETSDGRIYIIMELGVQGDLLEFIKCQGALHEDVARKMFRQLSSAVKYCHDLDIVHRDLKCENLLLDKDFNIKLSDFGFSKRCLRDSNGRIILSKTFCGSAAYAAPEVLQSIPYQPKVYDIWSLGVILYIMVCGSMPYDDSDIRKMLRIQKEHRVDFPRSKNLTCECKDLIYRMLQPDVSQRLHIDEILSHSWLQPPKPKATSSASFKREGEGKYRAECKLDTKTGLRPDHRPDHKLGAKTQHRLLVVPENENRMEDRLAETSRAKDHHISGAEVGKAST
Procedure, shortened: as §1

ABL2/ARG = biological target: T8, ABL2/ARG (Homo sapiens, UniProt P42684)
T8 construct: purchased Reaction Biology Corp
Procedure, shortened: as §1

YES/YES1 = biological target: T9, YES/YES1 (Homo sapiens, UniProt P07947)
T9 construct: purchased Reaction Biology Corp
T9 sequence (P07947 whole entry): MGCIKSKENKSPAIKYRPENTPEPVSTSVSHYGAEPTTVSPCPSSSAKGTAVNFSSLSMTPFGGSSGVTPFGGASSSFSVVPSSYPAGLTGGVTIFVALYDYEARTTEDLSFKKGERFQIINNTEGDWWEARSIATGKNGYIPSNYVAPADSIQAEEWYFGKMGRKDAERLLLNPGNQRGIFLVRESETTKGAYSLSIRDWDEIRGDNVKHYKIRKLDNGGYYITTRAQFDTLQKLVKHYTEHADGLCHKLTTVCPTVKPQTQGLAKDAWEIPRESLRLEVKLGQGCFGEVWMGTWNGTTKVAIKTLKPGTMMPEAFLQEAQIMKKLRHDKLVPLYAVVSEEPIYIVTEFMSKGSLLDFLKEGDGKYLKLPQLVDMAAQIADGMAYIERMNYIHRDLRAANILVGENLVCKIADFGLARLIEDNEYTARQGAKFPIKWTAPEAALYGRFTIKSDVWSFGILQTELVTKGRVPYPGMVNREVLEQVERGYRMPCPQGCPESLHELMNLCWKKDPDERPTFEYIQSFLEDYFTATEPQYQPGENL
Procedure, shortened: as §1

MAPKAPK5/PRAK = biological target: T10, MAPKAPK5/PRAK (Homo sapiens, UniProt Q8IW41)
T10 construct: purchased Reaction Biology Corp
T10 sequence (Q8IW41 1-473): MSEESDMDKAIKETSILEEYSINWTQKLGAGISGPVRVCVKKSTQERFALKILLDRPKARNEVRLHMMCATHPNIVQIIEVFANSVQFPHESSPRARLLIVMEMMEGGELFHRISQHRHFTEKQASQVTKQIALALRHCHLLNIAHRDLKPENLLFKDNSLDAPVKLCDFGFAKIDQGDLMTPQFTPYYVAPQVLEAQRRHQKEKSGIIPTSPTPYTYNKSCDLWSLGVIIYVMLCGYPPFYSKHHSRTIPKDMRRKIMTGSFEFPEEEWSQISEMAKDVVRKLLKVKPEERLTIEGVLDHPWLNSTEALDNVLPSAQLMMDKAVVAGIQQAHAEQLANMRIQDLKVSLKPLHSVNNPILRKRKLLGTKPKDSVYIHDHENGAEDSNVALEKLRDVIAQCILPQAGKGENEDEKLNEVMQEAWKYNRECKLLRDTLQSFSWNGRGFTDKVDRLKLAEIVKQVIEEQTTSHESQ
Procedure, shortened: as §1

CK1g1 = biological target: T11, CK1g1 (Homo sapiens, UniProt Q9HCP0)
T11 construct: purchased Reaction Biology Corp
T11 sequence (Q9HCP0 whole entry): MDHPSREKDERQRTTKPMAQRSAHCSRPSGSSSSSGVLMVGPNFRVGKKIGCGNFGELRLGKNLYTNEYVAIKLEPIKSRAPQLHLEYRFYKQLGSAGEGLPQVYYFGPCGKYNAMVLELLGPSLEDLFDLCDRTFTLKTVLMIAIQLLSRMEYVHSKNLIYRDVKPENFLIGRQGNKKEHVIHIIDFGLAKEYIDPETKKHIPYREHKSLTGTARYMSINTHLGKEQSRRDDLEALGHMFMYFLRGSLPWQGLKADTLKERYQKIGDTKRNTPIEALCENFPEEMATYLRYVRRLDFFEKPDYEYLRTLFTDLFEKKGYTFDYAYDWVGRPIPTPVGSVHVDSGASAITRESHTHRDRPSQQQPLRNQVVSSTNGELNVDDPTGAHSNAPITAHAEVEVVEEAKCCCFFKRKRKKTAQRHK
Procedure, shortened: as §1

MKK6 = biological target: T12, MKK6 (Homo sapiens, UniProt P52564)
T12 construct: purchased Reaction Biology Corp
T12 sequence (P52564 1-334): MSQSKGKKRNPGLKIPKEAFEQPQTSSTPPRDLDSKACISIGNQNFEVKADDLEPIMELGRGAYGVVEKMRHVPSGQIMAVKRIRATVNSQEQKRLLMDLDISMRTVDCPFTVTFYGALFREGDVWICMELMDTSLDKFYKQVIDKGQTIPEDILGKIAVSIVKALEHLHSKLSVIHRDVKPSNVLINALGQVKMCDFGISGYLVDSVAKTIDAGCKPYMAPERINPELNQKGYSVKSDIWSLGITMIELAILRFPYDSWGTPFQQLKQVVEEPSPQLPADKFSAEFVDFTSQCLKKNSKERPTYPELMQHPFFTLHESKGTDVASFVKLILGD
Procedure, shortened: as §1

PAK5 = biological target: T13, PAK5 (Homo sapiens, UniProt Q9P286)
T13 construct: purchased Reaction Biology Corp
T13 sequence (Q9P286 whole entry): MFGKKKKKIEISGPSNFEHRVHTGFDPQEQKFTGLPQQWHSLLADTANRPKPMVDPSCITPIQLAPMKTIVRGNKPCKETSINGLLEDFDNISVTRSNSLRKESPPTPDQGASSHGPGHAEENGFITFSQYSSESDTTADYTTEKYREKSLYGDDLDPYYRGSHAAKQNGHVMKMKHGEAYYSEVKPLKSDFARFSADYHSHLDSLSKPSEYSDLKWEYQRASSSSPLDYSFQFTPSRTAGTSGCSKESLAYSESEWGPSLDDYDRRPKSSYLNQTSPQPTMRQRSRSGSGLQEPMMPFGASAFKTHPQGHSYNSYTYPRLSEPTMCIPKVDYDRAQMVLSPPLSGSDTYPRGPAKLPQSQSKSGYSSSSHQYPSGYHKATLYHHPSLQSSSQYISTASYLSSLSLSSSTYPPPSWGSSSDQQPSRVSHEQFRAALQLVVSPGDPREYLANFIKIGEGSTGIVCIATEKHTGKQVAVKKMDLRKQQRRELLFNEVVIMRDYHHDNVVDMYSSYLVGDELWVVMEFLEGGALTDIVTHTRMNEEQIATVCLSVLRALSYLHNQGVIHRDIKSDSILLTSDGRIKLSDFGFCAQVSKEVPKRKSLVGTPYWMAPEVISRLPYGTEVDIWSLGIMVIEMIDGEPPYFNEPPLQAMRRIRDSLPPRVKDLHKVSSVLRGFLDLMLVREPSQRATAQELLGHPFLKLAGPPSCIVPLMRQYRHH
Procedure, shortened: as §1

CLK3 = biological target: T14, CLK3 (Homo sapiens, UniProt P49761)
T14 construct: purchased Reaction Biology Corp
T14 sequence (P49761 whole entry): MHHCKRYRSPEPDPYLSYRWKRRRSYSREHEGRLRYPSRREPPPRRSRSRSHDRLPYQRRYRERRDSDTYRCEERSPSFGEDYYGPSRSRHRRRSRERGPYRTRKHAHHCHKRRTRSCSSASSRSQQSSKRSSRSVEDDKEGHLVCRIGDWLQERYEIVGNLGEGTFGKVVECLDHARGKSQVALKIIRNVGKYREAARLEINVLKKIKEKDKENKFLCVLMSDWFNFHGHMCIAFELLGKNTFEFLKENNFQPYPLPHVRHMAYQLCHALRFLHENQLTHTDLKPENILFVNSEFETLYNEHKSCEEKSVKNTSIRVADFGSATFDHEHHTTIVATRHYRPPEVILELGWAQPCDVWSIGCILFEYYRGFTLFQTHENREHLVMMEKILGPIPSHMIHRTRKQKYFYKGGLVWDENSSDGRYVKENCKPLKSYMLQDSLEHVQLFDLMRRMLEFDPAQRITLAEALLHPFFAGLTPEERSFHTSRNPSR
Procedure, shortened: as §1

[1] = read-out: % Enzyme Activity (relative to DMSO controls) AVG
[2] = read-out: % Enzyme Activity (relative to DMSO controls) Data 1
[3] = read-out: % Enzyme Activity (relative to DMSO controls) Data 2

Molecule `CC(C)(C)C(=O)N1N=CC[C@H]1c1ccccc1` [GSK′963] has a remaining activity at 10 µM (HGK/MAP4K4; [1]) of 95.7%, a remaining activity at 10 µM (HGK/MAP4K4; [2]) of 94.5% and a remaining activity at 10 µM (HGK/MAP4K4; [3]) of 97%. It also gave a remaining activity at 10 µM (RSK4; [1]) of 116%, a remaining activity at 10 µM (RSK4; [2]) of 116% and a remaining activity at 10 µM (RSK4; [3]) of 116%. The remaining activity at 10 µM (LCK; [1]) was 96.4%, the remaining activity at 10 µM (LCK; [2]) was 96.1% and the remaining activity at 10 µM (LCK; [3]) was 96.7%. It also gave a remaining activity at 10 µM (MINK/MINK1; [1]) of 90.2%, a remaining activity at 10 µM (MINK/MINK1; [2]) of 89.8% and a remaining activity at 10 µM (MINK/MINK1; [3]) of 90.6%. For the same molecule, the remaining activity at 10 µM (TRKB; [1]) was 101%, the remaining activity at 10 µM (TRKB; [2]) was 101% and the remaining activity at 10 µM (TRKB; [3]) was 100%. The remaining activity at 10 µM (IRAK4; [1]) was 115%, the remaining activity at 10 µM (IRAK4; [2]) was 116% and the remaining activity at 10 µM (IRAK4; [3]) was 114%. The remaining activity at 10 µM (TSSK2; [1]) was 104%, the remaining activity at 10 µM (TSSK2; [2]) was 102% and the remaining activity at 10 µM (TSSK2; [3]) was 105%. It also gave a remaining activity at 10 µM (ABL2/ARG; [1]) of 83%, a remaining activity at 10 µM (ABL2/ARG; [2]) of 84.7% and a remaining activity at 10 µM (ABL2/ARG; [3]) of 81.4%. For the same molecule, the remaining activity at 10 µM (YES/YES1; [1]) was 88.2%, the remaining activity at 10 µM (YES/YES1; [2]) was 88.7% and the remaining activity at 10 µM (YES/YES1; [3]) was 87.8%. For the same molecule, the remaining activity at 10 µM (MAPKAPK5/PRAK; [1]) was 116%, the remaining activity at 10 µM (MAPKAPK5/PRAK; [2]) was 115% and the remaining activity at 10 µM (MAPKAPK5/PRAK; [3]) was 117%. The remaining activity at 10 µM (CK1g1; [1]) was 108%, the remaining activity at 10 µM (CK1g1; [2]) was 111% and the remaining activity at 10 µM (CK1g1; [3]) was 105%. The remaining activity at 10 µM (MKK6; [1]) was 99.7%, the remaining activity at 10 µM (MKK6; [2]) was 101% and the remaining activity at 10 µM (MKK6; [3]) was 98.6%. It also gave a remaining activity at 10 µM (PAK5; [1]) of 124%, a remaining activity at 10 µM (PAK5; [2]) of 119% and a remaining activity at 10 µM (PAK5; [3]) of 128%. It also gave a remaining activity at 10 µM (CLK3; [1]) of 107%, a remaining activity at 10 µM (CLK3; [2]) of 109% and a remaining activity at 10 µM (CLK3; [3]) of 105%.
